According to ChEMBL document CHEMBL3885861, “Open TG-GATES”:

Organism: Rattus norvegicus
Assay: Open TG-GATES - Regimen: Single
Assay type: toxicity, organism-based, Sprague-Dawley
Set-up: regimen Single, gender Male, age 6 weeks
Details: in vivo, po, 0 mg/kg, route gavage, dose level Control; for APTT / Bas / Eos / Fbg / Hb / Ht / Lym / MCH / MCHC / MCV / Mono / Neu / PT / Plat / RBC / Ret / WBC: tissue Blood; for KIDNEY_L / KIDNEY_R / KIDNEY_TOTAL: tissue Kidney; for LIVER: tissue Liver; for A/G / ALP / ALT / AST / BUN / CRE / Ca / Cl / DBIL / GLC / IP / K / LDH / Na / PL / RALB / TBIL / TC / TG / TP / gamma-GTP: tissue Plasma

## CN(C/C=C/C#CC(C)(C)C)Cc1cccc2ccccc12 [TERBINAFINE]
3 h
  TERMINAL_BW: 225.4 g
  APTT: 18.8 s
  Bas: 0.6%
  Eos: 0.8%
  Fbg: 226 mg/dL
  Hb: 13.2 g/dL
  Ht: 39.2%
  Lym: 81.8%
  MCH: 21.8 pg
  MCHC: 33.7%
  MCV: 64.7 fL
  Mono: 2.4%
  Neu: 13.6%
  PT: 12.1 s
  Plat: 121.7 x10_4/uL
  RBC: 606.2 x10_4/ul
  Ret: 7.5%
  WBC: 116.5 x10_2/uL
  KIDNEY_L: 1.1 g
  KIDNEY_R: 1 g
  KIDNEY_TOTAL: 2.1 g
  LIVER: 10.9 g
  A/G: 1.7
  ALP: 1027 IU/L
  ALT: 40.4 IU/L
  AST: 72.4 IU/L
  BUN: 12 mg/dL
  CRE: 0.4 mg/dL
  Ca: 10.8 mg/dL
  Cl: 101.8 meq/L
  DBIL: 0.074 mg/dL
  GLC: 202.2 mg/dL
  IP: 9 mg/dL
  K: 3.7 meq/L
  LDH: 154.4 IU/L
  Na: 140.8 meq/L
  PL: 151.8 mg/dL
  RALB: 3.4 g/dL
  TBIL: 0.1 mg/dL
  TC: 85.4 mg/dL
  TG: 68.4 mg/dL
  TP: 5.5 g/dL
  gamma-GTP: 1 IU/L
6 h
  TERMINAL_BW: 222.8 g
  APTT: 19 s
  Bas: 0.6%
  Eos: 0.8%
  Fbg: 229.4 mg/dL
  Hb: 13.7 g/dL
  Ht: 40.5%
  Lym: 72.6%
  MCH: 21.1 pg
  MCHC: 33.8%
  MCV: 62.3 fL
  Mono: 3.2%
  Neu: 22.4%
  PT: 12 s
  Plat: 132.2 x10_4/uL
  RBC: 650.8 x10_4/ul
  Ret: 6.6%
  WBC: 113 x10_2/uL
  KIDNEY_L: 1 g
  KIDNEY_R: 1 g
  KIDNEY_TOTAL: 2 g
  LIVER: 9.9 g
  A/G: 1.7
  ALP: 967.6 IU/L
  ALT: 34.8 IU/L
  AST: 69.6 IU/L
  BUN: 10.6 mg/dL
  CRE: 0.4 mg/dL
  Ca: 10.8 mg/dL
  Cl: 102.8 meq/L
  DBIL: 0.074 mg/dL
  GLC: 197.2 mg/dL
  IP: 8.8 mg/dL
  K: 3.8 meq/L
  LDH: 147.4 IU/L
  Na: 140.6 meq/L
  PL: 133.4 mg/dL
  RALB: 3.5 g/dL
  TBIL: 0.1 mg/dL
  TC: 76.2 mg/dL
  TG: 59.2 mg/dL
  TP: 5.5 g/dL
  gamma-GTP: 1 IU/L
9 h
  TERMINAL_BW: 219.8 g
  APTT: 18.2 s
  Bas: 0.6%
  Eos: 1%
  Fbg: 229 mg/dL
  Hb: 13.4 g/dL
  Ht: 39.8%
  Lym: 73.8%
  MCH: 20.9 pg
  MCHC: 33.5%
  MCV: 62.5 fL
  Mono: 1.8%
  Neu: 22.4%
  PT: 12.2 s
  Plat: 119.3 x10_4/uL
  RBC: 637.4 x10_4/ul
  Ret: 6.8%
  WBC: 89.2 x10_2/uL
  KIDNEY_L: 1 g
  KIDNEY_R: 1 g
  KIDNEY_TOTAL: 2 g
  LIVER: 9.3 g
  A/G: 1.6
  ALP: 810.4 IU/L
  ALT: 31 IU/L
  AST: 62.8 IU/L
  BUN: 11.8 mg/dL
  CRE: 0.4 mg/dL
  Ca: 10.5 mg/dL
  Cl: 103.6 meq/L
  DBIL: 0.066 mg/dL
  GLC: 204.2 mg/dL
  IP: 9.8 mg/dL
  K: 3.9 meq/L
  LDH: 167.6 IU/L
  Na: 141.4 meq/L
  PL: 136.4 mg/dL
  RALB: 3.4 g/dL
  TBIL: 0.1 mg/dL
  TC: 70.2 mg/dL
  TG: 62 mg/dL
  TP: 5.6 g/dL
  gamma-GTP: 1.4 IU/L
24 h
  TERMINAL_BW: 238.7 g
  APTT: 18.9 s
  Bas: 0.8%
  Eos: 1%
  Fbg: 236.8 mg/dL
  Hb: 13.2 g/dL
  Ht: 39.1%
  Lym: 79.2%
  MCH: 21.6 pg
  MCHC: 33.7%
  MCV: 64.3 fL
  Mono: 2.8%
  Neu: 16.4%
  PT: 11.8 s
  Plat: 132.1 x10_4/uL
  RBC: 608.4 x10_4/ul
  Ret: 6.3%
  WBC: 97.8 x10_2/uL
  KIDNEY_L: 1 g
  KIDNEY_R: 1 g
  KIDNEY_TOTAL: 2 g
  LIVER: 11.6 g
  A/G: 1.6
  ALP: 986.4 IU/L
  ALT: 36.4 IU/L
  AST: 74.4 IU/L
  BUN: 15.4 mg/dL
  CRE: 0.4 mg/dL
  Ca: 10.9 mg/dL
  Cl: 103.6 meq/L
  DBIL: 0.1 mg/dL
  GLC: 196.8 mg/dL
  IP: 7.4 mg/dL
  K: 4.2 meq/L
  LDH: 189.4 IU/L
  Na: 141.2 meq/L
  PL: 152 mg/dL
  RALB: 3.5 g/dL
  TBIL: 0.2 mg/dL
  TC: 74.4 mg/dL
  TG: 107.8 mg/dL
  TP: 5.7 g/dL
  gamma-GTP: 1.6 IU/L
